# Experimental data as given in patent publication US8785404B2, “Urea compounds” (Eli Lilly and Company, priority 2012, dated 2014).
# What was measured:
# human SGLT1 = biological target: T1, human SGLT1 (Homo sapiens, UniProt P13866); test: 14C-AMG uptake assay, human SGLT1 in CHO-K1 cells; type: cell-based
# T1 sequence (P13866 1-664): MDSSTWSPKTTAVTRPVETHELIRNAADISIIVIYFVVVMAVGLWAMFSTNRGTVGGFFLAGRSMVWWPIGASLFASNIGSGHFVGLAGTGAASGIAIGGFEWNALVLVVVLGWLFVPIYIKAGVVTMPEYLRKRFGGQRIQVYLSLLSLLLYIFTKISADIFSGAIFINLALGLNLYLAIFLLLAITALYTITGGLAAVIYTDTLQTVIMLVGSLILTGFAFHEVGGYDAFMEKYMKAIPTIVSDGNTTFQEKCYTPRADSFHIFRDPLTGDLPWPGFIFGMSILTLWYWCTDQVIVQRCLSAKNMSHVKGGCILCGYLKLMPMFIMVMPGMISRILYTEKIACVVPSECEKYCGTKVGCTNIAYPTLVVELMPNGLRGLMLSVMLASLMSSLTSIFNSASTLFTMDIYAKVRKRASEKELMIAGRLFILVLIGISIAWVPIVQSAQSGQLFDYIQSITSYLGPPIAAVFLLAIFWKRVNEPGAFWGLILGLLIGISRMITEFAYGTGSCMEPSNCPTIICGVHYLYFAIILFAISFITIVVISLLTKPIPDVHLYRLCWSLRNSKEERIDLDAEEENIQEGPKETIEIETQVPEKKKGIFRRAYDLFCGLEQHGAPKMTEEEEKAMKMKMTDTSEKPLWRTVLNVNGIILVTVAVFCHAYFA
# Source text: (§1) The cDNA encoding human SGLT1 (slc5a1, NM_000343), human SGLT2 (slc5a2, NM_003041) and mouse SGLT1 (slc5a1, NM_019810.4) are purchased from Openbiosystems, Invitrogen and Openbiosystems, respectively. The cDNA is cloned into pcDNA3.1+ for mammalian expression and is stably transfected into Chinese hamster ovary (CHO)-K1 cells using standard mammalian transfection procedures. An SGLT-expressing sub-clone of each over-expressing cell line is selected based on resistance to neomycin (Geneticin, Invitrogen) and activity in the ^14C-α-methyl-D-glucopyranoside (^14C-AMG) uptake assay (see below). Stable SGLT-expressing cells are maintained using standard cell culture techniques.
# (§2) The SGLT activity is measured as sodium-dependent ^14C-AMG uptake in the above cell lines described as follows. One hundred μL of culture medium containing 30,000 cells are seeded to each well of a 96-well BioCoat poly-D-lysine plate (Becton Dickson) and cultured at 37° C. overnight. The culture medium is aspirated and cells are washed twice with 200 μL of Reaction Buffer (140 mM NaCl, 2 mM KCl, 1 mM CaCl2, MgCl2, and 14 mM N-2-hydroethylpiperrazine-N′-2-ethanesulfonic acid (Hepes), pH 7.5). The excess buffer is tapped out onto paper towels. Thirty-five μL of Reaction Buffer are added to each well. […] After mixing, the scintillation signal in the plate is counted in a MicroBeta (PerkinElmer). […]
# human SGLT2 = biological target: T2, human SGLT2 (Homo sapiens, UniProt P31639); test: 14C-AMG uptake assay, human SGLT2 in CHO-K1 cells; type: cell-based; details: sodium-dependent 14C-AMG uptake, n = 5
# T2 sequence (P31639 1-672): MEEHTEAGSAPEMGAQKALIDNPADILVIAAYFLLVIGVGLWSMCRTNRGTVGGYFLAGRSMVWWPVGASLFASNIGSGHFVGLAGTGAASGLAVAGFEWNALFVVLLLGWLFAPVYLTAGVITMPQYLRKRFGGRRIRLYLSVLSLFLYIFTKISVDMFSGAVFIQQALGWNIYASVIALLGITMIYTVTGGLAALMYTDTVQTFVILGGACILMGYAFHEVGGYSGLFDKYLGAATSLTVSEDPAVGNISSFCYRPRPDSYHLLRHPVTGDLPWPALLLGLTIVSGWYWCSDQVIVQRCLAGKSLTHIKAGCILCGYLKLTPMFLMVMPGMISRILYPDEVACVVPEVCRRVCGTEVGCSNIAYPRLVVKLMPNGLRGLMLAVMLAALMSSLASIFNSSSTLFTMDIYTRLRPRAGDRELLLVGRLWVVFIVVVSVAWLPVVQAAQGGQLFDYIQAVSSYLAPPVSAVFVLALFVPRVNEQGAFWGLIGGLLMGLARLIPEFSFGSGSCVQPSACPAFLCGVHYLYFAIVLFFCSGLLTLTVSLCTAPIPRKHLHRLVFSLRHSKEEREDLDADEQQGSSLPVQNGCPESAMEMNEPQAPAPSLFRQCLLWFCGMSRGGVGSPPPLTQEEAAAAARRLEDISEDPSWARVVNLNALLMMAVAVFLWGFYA
# Source text: as §1, §2
# C57Bl/6 mice = test: Glucose lowering effects in oral glucose tolerance test (OGTT); type: in vivo, mouse; details: for Glucose, 20 Minute / Glucose, 40 Minute / Glucose, 60 Minute / Glucose, 120 Minute / Glucose, 0 Minute / Baseline Adjusted AUC (glucose) / Glucose Cmax / Glucose Tmax: 10 mg/kg oral, mean ± SE; for Glucose, 20 Minute: 20 min after dextrose 3 g/kg; for Glucose, 40 Minute: 40 min after dextrose 3 g/kg; for Glucose, 60 Minute: 60 min after dextrose 3 g/kg; for Glucose, 120 Minute: 120 min after dextrose 3 g/kg; for Glucose, 0 Minute: baseline before dextrose 3 g/kg
# Procedure: The test compound is formulated by adding a vehicle of 1% hydroxyethylcellulose, 0.25% Tween® 80 w/antifoam 0.05% to preweighed test compound to make a 1 mg/ml solution. The mixture is probe sonicated for approximately 1 minute. A stir bar is added, and the resulting suspension is stirred continuously throughout dosing.
# Single housed C57Bl/6 mice are weighed and body weights used to determine study groups (n=5), within a working range of 26-30 g. After grouping, all mice are fasted overnight by removing access to food, late afternoon before test day. At the same time, two groups of mice are orally gavaged with 10 ml/kg test compound preparation or vehicle. Animals are dosed thirty seconds apart. […] The following morning, the remaining mice are weighed and orally gavaged using the same protocol as the previous day.
# At five, eight and eighteen hours after each respective compound treatment is started, a baseline blood sample is taken for measuring glucose (from the first animal, via tail snip). The animal is then immediately given an oral dose of 50% dextrose (Hospira®) at 3 g/kg. Blood samples are taken for glucose, exactly thirty seconds apart, by tail vein so that blood is collected in each animal at 20, 40, 60 and 120 minutes after the dextrose dose.
# mouse SGLT1 = biological target: T3, mouse SGLT1 (Mus musculus, UniProt Q8C3K6); test: 14C-AMG uptake assay, mouse SGLT1 in CHO-K1 cells; type: cell-based; details: sodium-dependent 14C-AMG uptake, n = 5
# T3 sequence (Q8C3K6 1-665): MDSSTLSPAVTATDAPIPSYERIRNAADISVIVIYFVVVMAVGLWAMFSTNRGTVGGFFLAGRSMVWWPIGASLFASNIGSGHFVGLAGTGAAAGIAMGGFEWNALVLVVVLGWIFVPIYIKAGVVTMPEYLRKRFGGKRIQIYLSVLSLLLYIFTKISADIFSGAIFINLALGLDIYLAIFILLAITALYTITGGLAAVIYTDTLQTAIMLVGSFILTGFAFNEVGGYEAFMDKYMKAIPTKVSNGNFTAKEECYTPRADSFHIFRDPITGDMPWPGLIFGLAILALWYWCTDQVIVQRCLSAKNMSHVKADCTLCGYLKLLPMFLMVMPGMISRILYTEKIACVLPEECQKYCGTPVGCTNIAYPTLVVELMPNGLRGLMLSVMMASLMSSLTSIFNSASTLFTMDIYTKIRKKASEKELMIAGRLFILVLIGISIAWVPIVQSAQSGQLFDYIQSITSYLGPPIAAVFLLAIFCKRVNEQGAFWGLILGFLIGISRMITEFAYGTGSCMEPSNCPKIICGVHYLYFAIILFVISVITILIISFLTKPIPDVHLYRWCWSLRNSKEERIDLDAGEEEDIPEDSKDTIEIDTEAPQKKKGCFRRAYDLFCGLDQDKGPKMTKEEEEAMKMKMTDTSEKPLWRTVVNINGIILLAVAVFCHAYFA
# Source text: as §1, §2
smiles,measurement,setting,value
"Cc1cc(/C=C/CCN2CCCC3(CCN(C(=O)CNC(=O)NCC(C)C)CC3)C2)ccc1Cc1c(O[C@@H]2O[C@H](CO)[C@@H](O)[C@H](O)[C@H]2O)n[nH]c1C(C)C [Example 1, 1-(2-{2-[(3E)-4-(4-{[3-(beta-D-glucopyranosyloxy)-5-(propan-2-yl)-1H-pyrazol-4-yl]methyl}-3-methylphenyl)but-3-en-1-yl]-2,9-diazaspiro[5.5]undec-9-yl}-2-oxoethyl)-3-(2-methylpropyl)urea]",Potency at SGLT1 relative to human SGLT2 (in words),"human SGLT1; in vitro, human and mouse SGLT1 vs human SGLT2",more potent at human and mouse SGLT1 than at human SGLT2
same,IC50,"human SGLT1; sodium-dependent 14C-AMG uptake, CHO-K1 cells, n = 5",0.0173 ± 0.0162 µM
same,IC50,human SGLT2,0.171 ± 0.026 µM
same,"Glucose, 20 Minute",C57Bl/6 mice; OGTT @ 5 hr post dose,124.7 ± 7.66 mg/dL
same,"Glucose, 40 Minute",C57Bl/6 mice; OGTT @ 5 hr post dose,139.2 ± 7.69 mg/dL
same,"Glucose, 60 Minute",C57Bl/6 mice; OGTT @ 5 hr post dose,133.2 ± 6.24 mg/dL
same,"Glucose, 120 Minute",C57Bl/6 mice; OGTT @ 5 hr post dose,108.7 ± 4.93 mg/dL
same,"Glucose, 0 Minute",C57Bl/6 mice; OGTT @ 5 hr post dose,75.9 ± 3.21 mg/dL
same,Baseline Adjusted AUC (glucose),C57Bl/6 mice; OGTT @ 5 hr post dose,2815 ± 194 mg/dL
same,Glucose Cmax,C57Bl/6 mice; OGTT @ 5 hr post dose,140.2 ± 7.48 mg/dL
same,Glucose Tmax,C57Bl/6 mice; OGTT @ 5 hr post dose,56 ± 16 min
same,"Glucose, 20 Minute",C57Bl/6 mice; OGTT @ 8 hrs post dose,142.4 ± 7.4 mg/dL
same,"Glucose, 40 Minute",C57Bl/6 mice; OGTT @ 8 hrs post dose,168.1 ± 8.37 mg/dL
same,"Glucose, 60 Minute",C57Bl/6 mice; OGTT @ 8 hrs post dose,171.2 ± 10.1 mg/dL
same,"Glucose, 120 Minute",C57Bl/6 mice; OGTT @ 8 hrs post dose,113.6 ± 4.25 mg/dL
same,"Glucose, 0 Minute",C57Bl/6 mice; OGTT @ 8 hrs post dose,75.5 ± 4.42 mg/dL
same,Baseline Adjusted AUC (glucose),C57Bl/6 mice; OGTT @ 8 hrs post dose,4147 ± 456 mg/dL
same,Glucose Cmax,C57Bl/6 mice; OGTT @ 8 hrs post dose,175.1 ± 9.3 mg/dL
same,Glucose Tmax,C57Bl/6 mice; OGTT @ 8 hrs post dose,52 ± 4.9 min
same,"Glucose, 20 Minute",C57Bl/6 mice; OGTT @ 18 hrs post dose,196.0 ± 16.6 mg/dL
same,"Glucose, 40 Minute",C57Bl/6 mice; OGTT @ 18 hrs post dose,216.1 ± 15.0 mg/dL
same,"Glucose, 60 Minute",C57Bl/6 mice; OGTT @ 18 hrs post dose,188.7 ± 13.8 mg/dL
same,"Glucose, 120 Minute",C57Bl/6 mice; OGTT @ 18 hrs post dose,110.3 ± 5.74 mg/dL
same,"Glucose, 0 Minute",C57Bl/6 mice; OGTT @ 18 hrs post dose,78.7 ± 8.81 mg/dL
same,Baseline Adjusted AUC (glucose),C57Bl/6 mice; OGTT @ 18 hrs post dose,6194 ± 406 mg/dL
same,Glucose Cmax,C57Bl/6 mice; OGTT @ 18 hrs post dose,216.1 ± 15.0 mg/dL
same,Glucose Tmax,C57Bl/6 mice; OGTT @ 18 hrs post dose,44 ± 4.0 min
same,Average maximum concentration of plasma glucose (Cmax) (in words),C57Bl/6 mice; during all three OGTTs,decreases
same,Average time for glucose to reach maximum concentration (Tmax) (in words),C57Bl/6 mice; during all three OGTTs,increasing
same,Baseline adjusted glucose AUC (in words),C57Bl/6 mice; during all three OGTTs,dose dependent decrease
same,Glucose excursion after oral bolus of 50% dextrose (in words),"C57Bl/6 mice; normal glycemic C57Bl/6 mouse, five, eight or eighteen hours after administration",decrease in the glucose excursion
same,IC50,mouse SGLT1,0.0073 ± 0.0029 µM
